No end group written: not given here.
Assays:
HaloTag7D106A [1] = target: T1, HaloTag7D106A (Rhodococcus rhodochrous, UniProt P0A3G2, A155T/A167V/A172T/A224E/C128F/C176G/D106A/D78G/E160K/E257K/H272N/K175M/K195N/L47V/L88M/N227D/P291S/S2A/S58T/T264A/Y273L/Y87F); experiment: FP binding assay of fluorescent HaloTag ligands
T1 construct: made in house
Procedure: FIG. 2 Affinities of fluorescent Halo Tag™ ligands to HaloTag7D106A: The catalytically dead variant HaloTag7D106A was titrated against 5 different fluorescent HaloTag™ ligands at 25 nM in an FP binding assay (Halo-carbopyronine, Halo-TMR, Halo-TMR-azetidine, Halo-Oregon Green™, Halo Alexa Fluor™ 488). Structures of the fluorescent ligands are shown in each graph. Data points at 0.1 nM and 1 nM correspond to values without any protein added, but were placed at low concentrations to appear on the logarithmic scale. All experiments were performed in triplicates, error bars and annotated uncertainties represent standard deviations.
(§1) The inventors decided to perform the experiment with some representative fluorescent HaloTag™ substrates. An exchange of the aspartate106 residue in the active site by an alanine, removes the nucleophile responsible for the self labeling reaction and eliminates the catalytic activity of the protein. Catalytically dead mutants of HaloTag™ 7 (HaloTag™ 7D106A) and cpHaloΔ9mer (cpHalo_9merD106A) were generated to measure substrate affinities without displacement of the equilibrium by the enzymatic reaction.
Affinities for the different fluorescent substrates towards HaloTag™ 7D106A were determined in an FP binding assay (FIG. 2), while affinities of fluorogenic silcon-rhodamine derived substrates were measured by a fluorescence intensity based binding assay (FIG. 3), since binding of the fluorogenic ligands by HaloTag™ 7 engenders a strong increase of fluorescence. In both cases Halo Tag7D106A concentrations ranging from 0 μM to 100 μM were titrated against 25 nM of dye. […] The observed affinities are in agreement with labelling kinetics recorded with different substrates (data not shown). In general, fluorogenic substrates have lower affinities to HaloTag7D106A than non-fluorogenic substrates, except for Halo-Alexa Fluor™ 488 that features an affinity in the same range. Additionally, within the Silicon rhodamine derivatives the presence of an azetidine or 3-fluoroazetidine moiety has an influence on the binding affinity which is more pronounced compared to the rhodamine structure. Affinities of fluorescent HaloTag™ ligands presenting the best affinities for HaloTag™ 7 were tested with cpHaloΔ9merD106A in an FP binding assay and results were compared to the measurements with HaloTag7D106A (FIG. 4, table 1).

cpHaloΔ9mer = target: T2, cpHaloΔ9mer (Rhodococcus rhodochrous, UniProt P0A3G2, C128F/D78G/L47V/L88M/S58T/Y87F); experiment: Background labelling of cpHaloΔ9mer by in gel fluorescence; assay type: biochemical; conditions: cpHaloΔ9mer 1 μM, 2 μM fluorescent ligand, 37° C.
T2 construct: made in house
T2 sequence (P0A3G2 other isoform, or with tags, fused parts or gaps L47V/S58T/D78G/Y87F/L88M/C128F): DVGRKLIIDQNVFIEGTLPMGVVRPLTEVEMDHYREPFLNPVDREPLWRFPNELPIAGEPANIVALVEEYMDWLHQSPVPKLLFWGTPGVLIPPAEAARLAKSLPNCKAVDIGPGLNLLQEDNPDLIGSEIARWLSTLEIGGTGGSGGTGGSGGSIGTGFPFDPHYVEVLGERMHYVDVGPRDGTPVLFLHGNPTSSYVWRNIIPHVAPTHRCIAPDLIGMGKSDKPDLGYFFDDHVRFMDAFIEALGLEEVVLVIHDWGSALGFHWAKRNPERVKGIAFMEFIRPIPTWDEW
Procedure: FIG. 5 Background labeling of cpHaloΔ9mer: Background labeling of cpHaloΔ9mer (1 μM) in presence of 2 μM fluorescent ligands (at 37° C.) was determined via in gel fluorescence measurements. Samples were denatured and analysed via SDS-PAGE followed by in gel fluorescence scanning (top; gel is represented in false colors to highlight dim bands). Intensities were normalized to Halo Tag™ 7 labeled with the respective fluorophore (bottom).
A well performing protein complementation assay requires a low background. The inventors thus measured the extent of background labelling of cpHaloΔ9mer with different fluorophores (Halo-TMR, Halo-CPY and Halo-SiR). Therefore, cpHaloΔ9mer was incubated with an excess of the different fluorescent ligands.
The labelling efficiency at 37° C. and at different time points was determined via in gel fluorescence measurements (FIG. 5). […] These findings are in accordance to fluorescent ligand affinities (FIG. 4). Indeed, Halo-CPY has the highest affinity to cpHaloΔ9mer and already presents some affinity for the ligand at 2 μM engendering a labelling which still remains marginal considering the experimental setup.

HaloTag7D106A [2] = target: T1, HaloTag7D106A; experiment: Fluorescence intensity based binding assay of fluorogenic HaloTag ligands; conditions: 25 nM fluorogenic dye
Procedure: FIG. 3 Affinities of fluorogenic HaloTag™ ligands to HaloTag7D106A: The catalytically dead variant HaloTag7D106A was titrated against 3 different fluorogenic HaloTag™ ligands at 25 nM in a fluorescence intensity based binding assay (Halo-Siliconrhodamine, Halo-Janelia Fluor 646 and Halo-Janelia Fluor 635). Structures of the fluorogenic ligands are shown in each graph. Data were fitted to a one-site binding model and derived Kd values are shown in the graph. Due to the low affinity of the fluorogenic substrates, data points at […] were extrapolated based on fully labelled Halo Tag™ 7 (resembling complete binding) to improve fitting. Data points at 1 nM correspond to values without any protein added, but were placed at low concentrations to appear on the logarithmic scale. All experiments were performed in triplicates, error bars and annotated uncertainties represent standard deviations.
as §1
(§2) Affinities for the different fluorescent substrates towards HaloTag™ 7D106A were determined in an FP binding assay (FIG. 2), while affinities of fluorogenic silcon-rhodamine derived substrates were measured by a fluorescence intensity based binding assay (FIG. 3), since binding of the fluorogenic ligands by HaloTag™ 7 engenders a strong increase of fluorescence. In both cases Halo Tag7D106A concentrations ranging from 0 μM to 100 μM were titrated against 25 nM of dye. […] The observed affinities are in agreement with labelling kinetics recorded with different substrates (data not shown). […]

cpHaloΔ9merD106A = cpHaloΔ9merD106A (Rhodococcus rhodochrous, UniProt P0A3G2, A167V/A172T/A224E/A292T/C128F/C176G/D106A/D78G/E160K/E257K, form not given/H272N/K175M/K195N/L47V/L88M/N227D/P291S/S58T/T264A/Y273L/Y87F); experiment: FP binding assay of fluorescent HaloTag ligands; conditions: 25 nM dye
cpHaloΔ9merD106A, sequence (P0A3G2 other isoform, or with tags, fused parts or gaps with the stated changes, form open): as the sequence (P0A3G2 other isoform, or with tags, fused parts or gaps L47V/S58T/D78G/Y87F/L88M/C128F) above, with D258A counted along it
Procedure: FIG. 4 Comparison of HaloTag™ 7D106A and cpHaloΔ9merD106A fluorescent substrate binding: The catalytically dead variant […] (blue) was titrated against 3 different fluorescent Halo Tag™ ligands at 25 nM in an FP binding assay (Halo-TMR, Halo-TMR-azetidine and Halo-carbopyronine). Structures of the respective fluorescent ligands are shown above each graph. Data were fitted to a one-site binding model and derived Kd values are shown in the graphs. Data points at 0.01 nM and 0.1 nM correspond to values without any protein added, but were placed at low concentrations to appear on the logarithmic scale. Data were compared to HaloTag™ 7D106A binding of the same fluorophores (red). Differences in binding affinity are indicated by the relative fold change of Kd values. All experiments were performed in triplicate, error bars represent standard deviations.
as §1, §2

physchem = conditions: pH 7.3

T1 sequence (P0A3G2 other isoform, or with tags, fused parts or gaps with the stated changes): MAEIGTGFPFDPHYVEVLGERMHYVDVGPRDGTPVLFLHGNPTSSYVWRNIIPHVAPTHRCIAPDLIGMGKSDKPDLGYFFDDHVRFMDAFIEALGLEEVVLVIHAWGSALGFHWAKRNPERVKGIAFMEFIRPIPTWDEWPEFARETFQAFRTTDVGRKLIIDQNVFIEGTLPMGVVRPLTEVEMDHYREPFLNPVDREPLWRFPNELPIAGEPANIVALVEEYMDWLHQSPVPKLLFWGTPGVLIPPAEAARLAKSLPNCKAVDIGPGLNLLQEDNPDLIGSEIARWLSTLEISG

## O=C(NCCOCCOCCCCCCCl)c1ccc(C(=O)O)c(-c2c3cc(F)c(=O)cc-3oc3cc(O)c(F)cc23)c1 [Halo-Oregon Green, 4-((2-(2-((6-chlorohexyl)oxy)ethoxy)ethyl)carbamoyl)-2-(2,7-difluoro-6-hydroxy-3-oxo-3H-xanthen-9-yl)benzoic acid]
HaloTag7D106A [1]
  Kd: 39.6 µM

## N=c1ccc2c(-c3cc(C(=O)NCCOCCOCCCCCCCl)ccc3C(=O)O)c3ccc(N)c(S(=O)(=O)O)c3oc-2c1S(=O)(=O)O [Halo-Alexa Fluor 488, 6-amino-9-(2-carboxy-5-((2-(2-((6-chlorohexyl)oxy)ethoxy)ethyl)carbamoyl)phenyl)-3-iminio-3H-xanthene-4,5-disulfonate]
HaloTag7D106A [1]; HaloTag7D106A, FP binding assay, 25 nM dye, one-site binding model, read-out: Kd
  Kd: 94 µM

## CN(C)c1ccc2c(c1)[Si](C)(C)C1=CC(=[N+](C)C)C=CC1=C2c1cc(C(=O)NCCOCCOCCCCCCCl)ccc1C(=O)O [Halo-silicon-rhodamine, N-(10-(2-carboxy-5-((2-(2-((6-chlorohexyl)oxy)ethoxy)ethyl)carbamoyl)phenyl)-7-(dimethylamino)-5,5-dimethyldibenzo[b,e]silin-3(5H)-ylidene)-N-methylmethanaminium]
cpHaloΔ9mer
  background labelling of cpHaloΔ9mer: Very low background labelling
HaloTag7D106A [2]
  Kd: 22.7 µM

## C[Si]1(C)C2=CC(=[N+]3CCC3)C=CC2=C(c2cc(C(=O)NCCOCCOCCCCCCCl)ccc2C(=O)O)c2ccc(N3CCC3)cc21 [Halo-silicon-rhodamine-azetidine (JF646), 1-(7-(azetidin-1-yl)-10-(2-carboxy-5-((2-(2-((6-chlorohexyl)oxy)ethoxy)ethyl)-carbamoyl)phenyl)-5,5-dimethyldibenzo[b,e]silin-3(5H)-ylidene)azetidin-1-ium]
HaloTag7D106A [2]
  Kd: 54.6 µM

## CN(C)c1ccc2c(-c3cc(C(=O)NCCOCCOCCCCCCCl)ccc3C(=O)[O-])c3ccc(=[N+](C)C)cc-3oc2c1 [Halo-tetramethylrhodamine, N-(9-(2-carboxy-5-((2-(2-((6-chlorohexyl)oxy)ethoxy)ethyl)carbamoyl)phenyl)-6-(dimethylamino)-3H-xanthen-3-ylidene)-N-methylmethanaminium]
cpHaloΔ9mer
  background labelling of cpHaloΔ9mer: Very low background labelling
HaloTag7D106A [1]
  Kd: 6.68 µM
cpHaloΔ9merD106A
  Kd: 115 µM

## CN(C)c1ccc2c(c1)C(C)(C)C1=CC(=[N+](C)C)C=CC1=C2c1cc(C(=O)NCCOCCOCCCCCCCl)ccc1C(=O)[O-] [Halo-carbopyronine, N-(10-(2-carboxy-5-((2-(2-((6-chlorohexyl)oxy)ethoxy)ethyl)carbamoyl)phenyl)-7-(dimethylamino)-9,9-dimethylanthracen-2(9H)-ylidene)-N-methylmethanaminium]
cpHaloΔ9mer
  background labelling of cpHaloΔ9mer: slightly stronger background labelling
HaloTag7D106A [1]
  Kd: 0.622 µM
cpHaloΔ9merD106A
  Kd: 90.5 µM

## ARETFQAFR [9mer peptide]
physchem
  solubility: ~30 mM

## C[Si]1(C)C2=CC(=[N+]3CC(F)C3)C=CC2=C(c2cc(C(=O)NCCOCCOCCCCCCCl)ccc2C(=O)O)c2ccc(N3CC(F)C3)cc21 (stereo not drawn) [1-(10-(2-carboxy-5-((2-(2-((6-chlorohexyl)oxy)ethoxy)ethyl)carbamoyl)phenyl)-7-(3-fluoroazetidin-1-yl)-5,5-dimethyldibenzo[b,e]silin-3(5H)-ylidene)-3-fluoroazetidin-1-ium]
HaloTag7D106A [2]
  Kd: 172 µM

## O=C(NCCOCCOCCCCCCCl)c1ccc(C(=O)[O-])c(-c2c3ccc(=[N+]4CCC4)cc-3oc3cc(N4CCC4)ccc23)c1 [Halo-tetramethylrhodamine-azetidine, 1-(6-(azetidin-1-yl)-9-(2-carboxy-5-((2-(2-((6-chlorohexyl)oxy)ethoxy)ethyl)carbamoyl)-phenyl)-3H-xanthen-3-ylidene)azetidin-1-ium]
HaloTag7D106A [1]
  Kd: 4.4 µM
cpHaloΔ9merD106A
  Kd: 227 µM
